According to patent publication US20190111154A1, “TREATMENT OF NEUROPATHY WITH DNA CONSTRUCT EXPRESSING HGF ISOFORMS WITH REDUCED INTERFERENCE FROM GABAPENTINOIDS” (ViroMed Co., Ltd., priority 2017, published 2019):

Key:
[1] = Von Frey filament test in chronic constriction injury (CCI) mice, Example 1; type: in vivo; conditions: for paw withdrawal frequency: day 14-16
Experimental: FIG. 2 illustrates the experimental procedure for testing effects of gabapentin on VM202-mediated pain reduction using chronic constriction injury (CCI) mice. Surgical procedure on sciatic nerve (CCI or sham) was performed and a plasmid (pCK or VM202) was administered to 5-week-old male mice on day 0, gabapentin or PBS was injected daily to the mice from day 1 to day 15, and their pain levels were measured by von Frey filament test starting on day 14 through 16.
In order to explore the mechanisms behind the gabapentinoid interference with VM202 efficacy, we tested effects of gabapentin on VM202-mediated pain reduction in chronic constriction injury (CCI) mice as presented in FIG. 2. CCI is an animal model widely used for studying neuropathic pain. Specifically, chronic constriction injury (CCI) was introduced by applying loosely constrictive ligatures to the sciatic nerve of 5 week-old male mice. The CCI mice were divided into three groups—in the first group, 200 μg of pCK vector was administered into the cranial thigh muscles as a negative control for VM202 administration (pCK is the vector used in VM202, but lacks the HGF vector payload), in the second group, 200 μg of VM202 was administered into the cranial thigh muscles, and in the third group, no DNA construct was administered. Animals in each of the first and the second group were further divided into two subgroups, with the first subgroup injected daily with 100 mg/kg of gabapentin and the second subgroup injected daily with PBS as a negative control for gabapentin administration, via intraperitoneal cavity for two weeks. The sham group without CCI was also maintained and daily injected with PBS. From day 14 to day 16, Von Frey filament test was performed to assess the level of neuropathic pain (mechanical allodynia).

[2] = Nerve pinch test in nerve crush mouse model; type: in vivo, mice; conditions: day 7
Experimental: FIG. 5 illustrates the experimental procedure for testing gabapentin effects on VM202-mediated nerve regeneration in a nerve crush mouse model. Nerve crush was induced and VM202 administered to 9-week old male C57BL/6 mice on day 1, gabapentin was injected daily from day 2 to day 6, and nerve pinch test was conducted on day 7.
Effects of gabapentinoids on VM202-mediated nerve regeneration were tested in a nerve crush animal model. The protocol is schematized in FIG. 5. Specifically, nerve crush was introduced to 9-week-old C57BL/6 mice by giving brief pressure to their sciatic nerve. On the same day (day 1), the mice were injected with 200 μg of VM202 to the cranial thigh muscles right after the nerve crush. From the next day (day 2), 100 mg/kg gabapentin was administered daily.
On day 7, a nerve pinch test was performed to quantify functional recovery of the injured nerve. For the nerve pinch test, light anesthesia was induced and sciatic nerve was exposed. The injured nerve was pinched from its distal to proximal direction until a reflex response was observed. The distance was then measured between the injury site and the foremost site that produced the response. The distance measured by this method represents the length of regenerated nerves, which is provided on the y-axis in FIG. 6.

[3] = test system: c-Jun; assay: Western blot of c-Jun in dorsal root ganglion (DRG) cells of nerve crush mice; type: in vivo, mouse
From the text: Expressions of c-Jun (top) and GAPDH (bottom) were detected by antibodies specific to each protein. FIG. 7B provides relative levels of c-Jun expression in each sample, calculated by measuring band intensity of c-Jun and comparing the intensity with the band intensity of GAPDH.
c-Jun is well established to be a key factor involved in nerve regeneration, and has been used as a marker for that process. Expression of c-Jun protein prepared from dorsal root ganglion (DRG) cells obtained from a sham mouse (“Sham”) or from a nerve crush mouse (“Crush”) was measured by Western blot assay, using an antibody against c-Jun. […] VM202 treatment further increased c-Jun expression level by 1.3-fold (compare lanes 2 and 3 of FIG. 7A), but such induction was not observed when mice were exposed to gabapentin (compare lanes 5 and 6 of FIG. 7A). The western blot assay results were quantified based on the band intensities and presented in FIG. 7B for their analysis and comparison.

[4] = Von Frey filament test in CCI mice, gabapentin at different time points, Example 4; type: in vivo
Experimental: The effects of gabepentinoid administration at different time points relative to VM202 administration were tested in chronic constriction injury (CCI) mice.
After CCI surgery, the development of mechanical allodynia was assessed using a Von Frey's filament test once a week, and the level of pain reduction fold was calculated based on the mechanical frequency evaluation. Briefly, animals were placed individually in a cylinder on top of a metal mesh floor for adaptation. To examine the frequency of mechanical sensitivity, mice were assessed by stimulating the hind paw using constant thickness of the filament (0.16 g).
To further understand the delay required to prevent the interference, in a further experiment, CCI mice injected with VM202 were treated with gabapentin after delays for various periods ranging from 0 to 14 days. CCI mice were injected with VM202 or pCK on day 0. The CCI mice were treated with no gabapentin (CONT1, CONT2) or additionally treated with gabapentin starting on day 0 (on the day of VM202 injection, GP1) or day 3 (GP2), day 7 (GP3) or day 10 (GP4) after VM202 injection.
Two weeks after CCI surgery and VM202 or pCK injection, the development of mechanical allodynia was assessed using a Von Frey's filament test, and the level of pain reduction fold was calculated based on the mechanical frequency evaluation for each animal.

[5] = cited from earlier work
[6] = CCI mice given pCK and daily 100 mg/kg gabapentin i.p.

Molecule: NCC1(CC(=O)O)CCCCC1 [gabapentin]
- duration of pain relieving effects [1, 6]: about 6 hours
- pain level (paw withdrawal frequency) [1, 6]: decreases in pain levels immediately after the gabapentin administration

Molecule: VM202: plasmid DNA, HGF-X7 cloned into the pCK vector (SEQ ID NO: 11), expresses flHGF and dHGF; KCCM-10361
- pain level (paw withdrawal frequency) ([1]; CCI mice, 200 μg VM202, no gabapentin, throughout the experimental period): significantly lower pain levels
- paw withdrawal frequency ([1]; CCI mice, 200 μg VM202 i.m. plus daily 100 mg/kg gabapentin i.p.): 46.1%
- paw withdrawal frequency ([1]; CCI mice, 200 μg VM202 i.m., no gabapentin): 30.56%
- time over which pain level increased close to the pCK-PBS level after gabapentin injection ([1]; VM202-treated CCI mice, daily 100 mg/kg gabapentin): about 10 hours
- compromise of the pain reduction effect of VM202 by gabapentin ([1]; daily 100 mg/kg gabapentin i.p.): more than 50%
- length of regenerated nerve ([2]; 200 μg VM202, daily 100 mg/kg gabapentin): 1.95±0.3 mm
- length of regenerated nerve ([2]; 200 μg VM202, daily PBS): about 4±0.2 mm
- length of regenerated nerve, fold versus pCK control ([2]; daily PBS): approximately 2.7 fold
- increase of nerve regeneration, fold versus pCK control group ([2]; in the presence of daily gabapentin): 2.3 fold
- increase of c-Jun expression level versus nerve crush mice given pCK ([3]; daily PBS (lanes 2 and 3)): 1.3 fold
- induction of c-Jun expression versus nerve crush mice given pCK ([3]; mice exposed to gabapentin (lanes 5 and 6)): not observed
- pain level versus CCI-pCK ([4]; CCI-VM202-Gaba1: gabapentin from day 0 to day 14): no effects
- pain level from day 14 to 28, after gabapentin stopped ([4]; CCI-VM202-Gaba1: gabapentin from day 0 to day 14, none afterwards): continued to have high level of pains
- pain relieving effects ([4]; CCI-VM202-Gaba2: gabapentin from day 15 to day 28): significant and maintained
- pain level versus CCI-pCK ([4]; CCI-VM202: 200 μg/head VM202 day 0, no gabapentin): significantly reduced the pain level
- pain reducing effect two weeks after CCI surgery ([4]; CONT2: no gabapentin): significant pain relief
- pain reducing effect two weeks after CCI surgery ([4]; GP1: 100 mg/kg gabapentin started day 0): did not have significant pain reducing effects
- pain reducing effect two weeks after CCI surgery ([4]; GP2: 100 mg/kg gabapentin started day 3): did not have significant pain reducing effects
- pain reducing effect two weeks after CCI surgery ([4]; GP3: 100 mg/kg gabapentin started day 7): did not have significant pain reducing effects
- pain reducing effect two weeks after CCI surgery ([4]; GP4: 100 mg/kg gabapentin started day 10): significant pain relief
- pain in patients with diabetic peripheral neuropathy ([5]; injections into the calf muscle, two days of treatment spaced two weeks apart): significantly reduce pain
- reduction in pain from baseline, patients not on Lyrica and/or Neurontin versus total patient group ([5]; low dose of VM202 (total 16 mg), 3, 6, 9 months): larger reduction in pain
- pain relief in patients not taking pregabalin or gabapentin versus patients taking a gabapentinoid ([5]; post hoc analysis of phase II data): more effective in relieving pain in patients not taking pregabalin or gabapentin
- duration of symptomatic relief with improvement in quality of life ([5]; two days of treatment, spaced two weeks apart): 3 months
